Test results published in patent publication US6436947B1, “Trans cyclopentanyl purine analogs useful as immunosuppressants” (Aventis Pharmaceuticals Inc., priority 1991, dated 2002).
Counter-ions that a name gives are not always drawn.

How the values were obtained:
[1] = tested on: TNF-a production by peripheral blood mononuclear cells; assay: Inhibition of Tumor Necrosis Factor alpha in LPS-stimulated PBMC adherent cells (ELISA); format: cell-based; conditions: human PBMC adherent cells, 1 μg/ml LPS, 18 hours
Procedure: Peripheral blood mononuclear cells (PBMC) are isolated from venous blood collected from healthy volunteers in sodium citrate (5 ml of 3.6% sodium citrate for 45 ml of blood) by density gradient centrifugation of 5 minutes at 1500 rpm. The PBMC are resuspended in about 10 ml of RPMI-1640 with antibiotics. Approximately 2×10^6 cells of PBMC are added to tissue culture plates, incubated for 45-60 minutes at 37 C with 5% CO2, aspirated, and washed twice by adding about 0.5 ml fresh RPMI-1640 with 10% non-mitogenic FBS (RPMI complete) and shaking for 15 to 30 seconds. 1.0 ml RPMI-1640 is added per well to the remaining adherent cells, which are pretreated with test compound solution about 15 minutes prior to endotoxin stimulation (1 μg/ml lipopolysaccharide from E. coli or solvent concentrations equal to those of test compounds.
Cultures are incubated for 18 hours t 37 C in 5% CO2. Supernatants are tested from TNF-a using a commercial ELISA kit (Cistron, Pine Brook, N.J.). The IC50 is determined using SOFTmax software program.

[2] = tested on: Major Histocompatibility complex (MHC) class II antigen levels on macrophages; assay: Regulation of MHC class II expression on macrophages from M. tuberculosis-treated rats (flow cytometry, OX-6/OX-42); format: cell-based, rat; conditions: 10 μM, 18 hours; positive control 59%
Procedure: Using the method of Edwards (J. of Cell Biochemistry 5E, 155(1991)), the ability of a compound of formula (1) to reduce Major Histocompatibility complex (MHC) class II antigen levels on macrophages (MΦ) obtained from M. tuberculosis-treated rats may be measured. Cells obtained from treated rats are plated into tissue culture for a period of 4 hours to purify adherent cells, then treated with increasing levels of drug for a period of 18 hours. After this incubation period, cells are scraped from the dishes and stained using flow cytometry analysis with various monoclonal antibodies such as OX-6 a monoclonal antibody specific for MHC class II antigens and OX-42 a monoclonal antibody specific for rat macrophages.

[3] = tested on: Rat macrophage antigen presentation to mBSA-reactive T-cell hybridoma / Interleukin-2 production; assay: Regulation of macrophage antigen presentation to rat T-cell hybridoma (Interleukin-2 production); format: cell-based
Procedure: Using the method of Ku (Cellular Immunology 130, (1990)), and a Lewis (LEW/N) rat T-cell hybridoma reactive with the protein methylated bovine serum albumin (mBSA), the ability of a compound of formula (1) to regulate MΦ antigen presentation in vitro may be measured. Peritoneal macrophages obtained from LEW/N rats are plated into tissue culture and treated with 100 μg of mBSA and drug. A control is prepared similarly. After a period of 18 hours the cells are washed and incubated with the T-cell hybridoma for an additional 12 hours. Supernatants from these cultures are obtained and measured for content of Interleukin-2, a T-cell derived lymphokine which is produced by activated T-cells. […] Rat macrophage antigen presentation and the subsequent production of Interleukin-2 are inhibited when drug is administered over a concentration range from 0.1 to 100 μM as illustrated in the following table.

[4] = tested on: endotoxin-induced septic shock in CF1 mice; assay: Mouse endotoxin lethality model (D-galactosamine/LPS); format: in vivo; conditions: 100 mg/kg i.p., pretreated t=-1 hr, 18 mg D-glactoseamine and 50 ng LPS, observed 8-72 hour
Procedure: Using the method of Silverstein, (J. Exp. Med. 173, 357 (1991)) a mouse endotoxin lethality model may be used to determine if a compound of formula (1) has the ability to inhibit endotoxin-induced septic shock which is dependent on the production of Tumor Necrosis Factor-α (TNF-α). CF1 mice pretreated at time (t)=−1 hr with drug are challenged with 18 mg of D-glactoseamine and 50 ng of LPS, then observed for death over an 8-72 hour period.

| SMILES | IC50 [1] [µM] | OX-6/OX-42 double positive macrophages [2] [%] | T-cell activation ([3]; 0.1 to 100 μM) | % Inhibition (antigen presentation / Interleukin-2 production) ([3]; in vitro concentration 0.1 μM) [%] | % Inhibition (antigen presentation / Interleukin-2 production) ([3]; in vitro concentration 1.0 μM) [%] | % Inhibition (antigen presentation / Interleukin-2 production) ([3]; in vitro concentration 10.0 μM) [%] | % Inhibition (antigen presentation / Interleukin-2 production) ([3]; in vitro concentration 100.0 μM) [%] | protection against endotoxin lethality [4] |
| --- | --- | --- | --- | --- | --- | --- | --- | --- |
| Nc1ncnc2c1ncn2[C@@H]1CCC[C@H]1O (racemic) [(±)-Trans-1-(9-adenyl)-2-hydroxycyclopentane, reference compound] | 22.2 | – | – | – | – | – | – | – |
| Nc1nc(Cl)nc2c1ncn2[C@@H]1CC[C@@H](O)C1 (relative stereo) [Example 6, (1R,3R)-trans-1-[9-(6-Amino-2-chloropurinyl)]cyclopentan-3-ol Hydrochloride] | 4.1 | – | – | – | – | – | – | – |
| Cl.Nc1ncnc2c1ncn2[C@@H]1CC[C@@H](O)C1 (relative stereo) [Example 1, (1R,3R)-trans-1(9-Adenyl)cyclopentan-3-ol Hydrochloride] | 9 | 39 | inhibits T-cell activation | 7.6 | 30.9 | 48.7 | 55.3 | protects against endotoxin lethality |
